# Reference: patent publication US11492346B2, “Benzisoxazole sulfonamide derivatives” (Pfizer Inc., priority 2019, dated 2022)
# Read-outs that look alike come from different tables or passages of the source.
# What was measured:
# [1] = target: KAT8 (Homo sapiens (Human), UniProt Q9H7Z6); assay: KAT assay (SAMDI mass spectrometry), KAT8; type: biochemical
# Description: (§1) Prepare 10 mM stock solutions in 100% DMSO from solid material • 2. Serial dilute 10 mM, 1 mM or 0.1 mM compound stocks 3-fold in 100% DMSO for 11-point dose response
# (§2) Prepare 1× assay buffer containing 10 mM Tris HCL pH 8.0, 2.5 mM NaCl, 0.5 mM EDTA, 0.005% BSG and 0.02% Tween-20 • 2. Dilute Histone peptide (CPC Scientific) and AcCoA (Sigma) together in assay buffer to 2×. • 3. Dilute KAT enzyme in assay buffer to 2×.
# (§3) Enzyme reaction • 1. Final reaction conditions for each KAT assay in a 20 ul assay reaction volume: • i. KAT5 25 nM, 1 uM AcCoA, 2 uM H4 1-21 peptide, 30-minute reaction • ii. KAT6A 15 nM, 1 uM AcCoA, 2 uM H3 1-21 peptide, 45-minute reaction • iii. KAT6B 25 nM, 1 uM AcCoA, 2 uM H3 1-21 peptide, 60-minute reaction • iv. KAT7 12.5 nM, 1 uM AcCoA, 2 uM H3 1-21 peptide, 45-minute reaction • v. KAT8 15 nM, 1 uM AcCoA, 2 uM H3 1-21 peptide, 45-minute reaction • 2. Add 0.5 ul of diluted compound to the assay plate (384-well V-bottom polypropylene plates) or 0.5 ul of DMSO for control wells. • 3. Add 10 ul of 2× Histone peptide/2×AcCoA mix to the assay plate. • 4. Add 10 ul of 2× enzyme to the assay plate. • 5. Stop the reaction after the indicated time with the addition of 2 ul of 5% formic acid • 6. Each reaction was analyzed using self-assembled monolayer desorption/ionization time-of-flight mass spectrometry (Mrksich, Milan (2008) Mass Spectrometry of Self-Assembled Monolayers: A New Tool for Molecular Surface Science ACS Nano 2008 2 (1), 7-18; SAMDI Tech, Inc. (Chicago, Ill.)). • 7. Area under the curve (AUC) for both substrate and product peaks was determined for KAT5 at M.W. 2561 [Substrate+H]^+ and 2603 [Product+H]^+ with a +/−1 Da tolerance, respectively • 8. Area under the curve (AUC) for both substrate and product peaks was determined for KAT6a, KAT6B, KAT7 and KAT8 at M.W. 2723 [Substrate+H]^+ and 2765 [Product+H]^+ with a +/−1 Da tolerance, respectively. […] Percent conversion to product was calculated by: AUCProduct/(AUCsubstrate+AUCProduct).
# (§4) IC50 values were determined by fitting the % conversion at each inhibitor concentration to the 4-parameter IC50 equation using Pfizer proprietary curve fitting software. • 2. Ki values were determined by fitting the % conversion at each inhibitor concentration to the Morrison equation for tightbinding competitive inhibitors using Pfizer proprietary curve fitting software.
# (§5) KAT enzymes were expressed using a baculovirus expression system and purified at Pfizer, La Jolla. […] Acetyl coenzyme A was purchased from Sigma-Aldrich (St. Louis, Mo.). All other biochemical reagents were purchased from Sigma-Aldrich or ThermoFisher Scientific (Waltham, Mass.).
# (§6) KAT assays were performed at room temperature in assay buffer containing 1 μM AcCoA, 2 μM histone peptide, 10 mM Tris HCL pH 8.0, 2.5 mM NaCl, 0.5 mM EDTA, 0.005% BSG and 0.02% Tween-20. 10 ul of 2× Histone peptide/AcCoA mix was added to a 384-well V-bottom polypropylene assay plate containing 0.5 ul of serially diluted test compound in 100% dimethyl sulfoxide (DMSO). To start the reaction, 10 ul of 2× enzyme solution was added to the assay plate. KAT assays were terminated after 30-60 minutes with the addition of 2 ul of 5% formic acid. All assays used histone H3 (1-21) peptide except for the KAT5 assay which used histone H4 (1-21) peptide. The final enzyme concentration for each KAT was as follows: KAT5, 25 nM; KAT6A, 15 nM; KAT6B, 25 nM; KAT7, 12.5 nM; KAT8 15 nM. Each reaction was analyzed using self-assembled monolayer desorption/ionization time-of-flight mass spectrometry (Mrksich, Milan (2008) Mass Spectrometry of Self-Assembled Monolayers: A New Tool for Molecular Surface Science ACS Nano 2008 2 (1), 7-18; SAMDI Tech, Inc. (Chicago, Ill.)).
# (§7) Area under the curve (AUC) for both substrate and product peaks was determined for KAT5 at M.W. 2561 [Substrate+H]^+ and 2603 [Product+H]^+ with a +/−1 Da tolerance, respectively.
# [2] = target: KAT6A (Homo sapiens (Human), UniProt Q92794); assay: KAT assay (SAMDI mass spectrometry), KAT6A; type: biochemical;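 further: Baculovirus-expressed KAT6A acetylating histone H3 (1-21) peptide (2 µM), 30-60 min at room temperature, % product conversion fitted to Morrison equation for tight-binding competitive inhibitors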
# Chain of KAT6A (Q92794 whole entry): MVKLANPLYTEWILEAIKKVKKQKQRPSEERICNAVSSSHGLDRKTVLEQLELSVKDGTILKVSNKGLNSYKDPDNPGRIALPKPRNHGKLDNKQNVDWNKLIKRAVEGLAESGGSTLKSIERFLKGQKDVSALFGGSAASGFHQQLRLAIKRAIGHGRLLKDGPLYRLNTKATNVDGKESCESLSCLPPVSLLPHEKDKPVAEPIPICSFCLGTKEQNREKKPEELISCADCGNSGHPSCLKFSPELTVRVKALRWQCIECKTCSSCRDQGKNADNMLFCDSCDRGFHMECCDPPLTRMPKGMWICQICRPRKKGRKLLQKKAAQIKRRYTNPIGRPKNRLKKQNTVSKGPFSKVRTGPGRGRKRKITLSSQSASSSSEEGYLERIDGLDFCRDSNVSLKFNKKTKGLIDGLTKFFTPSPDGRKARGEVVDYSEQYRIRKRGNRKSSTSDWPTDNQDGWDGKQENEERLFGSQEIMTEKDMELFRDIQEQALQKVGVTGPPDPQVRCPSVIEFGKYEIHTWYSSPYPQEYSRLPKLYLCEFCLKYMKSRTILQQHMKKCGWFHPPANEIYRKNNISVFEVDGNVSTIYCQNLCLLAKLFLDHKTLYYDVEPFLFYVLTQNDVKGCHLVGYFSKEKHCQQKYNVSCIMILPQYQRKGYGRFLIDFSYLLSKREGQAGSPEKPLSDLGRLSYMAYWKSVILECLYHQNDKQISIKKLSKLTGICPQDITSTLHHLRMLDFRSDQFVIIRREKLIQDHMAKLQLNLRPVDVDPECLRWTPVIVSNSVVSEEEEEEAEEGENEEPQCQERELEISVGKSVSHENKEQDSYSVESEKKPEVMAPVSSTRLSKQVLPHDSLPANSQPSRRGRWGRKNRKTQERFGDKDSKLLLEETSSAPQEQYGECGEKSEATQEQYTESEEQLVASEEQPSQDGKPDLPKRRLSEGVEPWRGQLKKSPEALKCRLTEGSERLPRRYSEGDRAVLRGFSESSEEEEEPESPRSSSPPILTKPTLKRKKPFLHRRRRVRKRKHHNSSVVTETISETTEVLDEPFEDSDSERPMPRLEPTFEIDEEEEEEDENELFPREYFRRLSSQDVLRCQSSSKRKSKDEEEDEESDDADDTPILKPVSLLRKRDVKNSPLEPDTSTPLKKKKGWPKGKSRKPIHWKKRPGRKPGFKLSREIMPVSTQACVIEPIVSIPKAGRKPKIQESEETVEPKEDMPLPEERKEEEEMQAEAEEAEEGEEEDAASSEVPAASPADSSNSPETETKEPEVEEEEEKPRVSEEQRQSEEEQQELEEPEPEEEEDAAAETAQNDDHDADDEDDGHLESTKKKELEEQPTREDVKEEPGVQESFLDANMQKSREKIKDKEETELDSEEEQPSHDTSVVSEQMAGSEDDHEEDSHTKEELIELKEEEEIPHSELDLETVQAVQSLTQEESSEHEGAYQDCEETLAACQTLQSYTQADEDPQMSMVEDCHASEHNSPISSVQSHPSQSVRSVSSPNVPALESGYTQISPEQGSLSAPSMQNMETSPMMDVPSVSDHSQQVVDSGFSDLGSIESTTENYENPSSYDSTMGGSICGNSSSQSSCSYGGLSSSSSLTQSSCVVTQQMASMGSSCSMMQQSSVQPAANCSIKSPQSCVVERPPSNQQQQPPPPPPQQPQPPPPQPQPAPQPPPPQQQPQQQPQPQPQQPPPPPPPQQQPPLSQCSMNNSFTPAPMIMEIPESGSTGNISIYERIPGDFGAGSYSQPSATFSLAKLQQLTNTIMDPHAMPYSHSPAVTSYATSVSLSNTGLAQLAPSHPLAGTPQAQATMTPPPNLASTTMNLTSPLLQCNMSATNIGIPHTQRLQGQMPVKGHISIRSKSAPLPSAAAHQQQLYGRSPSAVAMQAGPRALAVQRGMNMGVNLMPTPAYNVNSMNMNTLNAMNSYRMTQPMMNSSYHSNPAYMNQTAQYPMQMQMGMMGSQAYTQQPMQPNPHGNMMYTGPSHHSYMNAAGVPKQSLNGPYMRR
# Description: as §1, §2, §3, §4, §5, §6, §7
# [3] = target: KAT6B (Homo sapiens (Human), UniProt Q8WYB5); assay: KAT assay (SAMDI mass spectrometry), KAT6B; type: biochemical
# Chain of KAT6B (Q8WYB5 whole entry): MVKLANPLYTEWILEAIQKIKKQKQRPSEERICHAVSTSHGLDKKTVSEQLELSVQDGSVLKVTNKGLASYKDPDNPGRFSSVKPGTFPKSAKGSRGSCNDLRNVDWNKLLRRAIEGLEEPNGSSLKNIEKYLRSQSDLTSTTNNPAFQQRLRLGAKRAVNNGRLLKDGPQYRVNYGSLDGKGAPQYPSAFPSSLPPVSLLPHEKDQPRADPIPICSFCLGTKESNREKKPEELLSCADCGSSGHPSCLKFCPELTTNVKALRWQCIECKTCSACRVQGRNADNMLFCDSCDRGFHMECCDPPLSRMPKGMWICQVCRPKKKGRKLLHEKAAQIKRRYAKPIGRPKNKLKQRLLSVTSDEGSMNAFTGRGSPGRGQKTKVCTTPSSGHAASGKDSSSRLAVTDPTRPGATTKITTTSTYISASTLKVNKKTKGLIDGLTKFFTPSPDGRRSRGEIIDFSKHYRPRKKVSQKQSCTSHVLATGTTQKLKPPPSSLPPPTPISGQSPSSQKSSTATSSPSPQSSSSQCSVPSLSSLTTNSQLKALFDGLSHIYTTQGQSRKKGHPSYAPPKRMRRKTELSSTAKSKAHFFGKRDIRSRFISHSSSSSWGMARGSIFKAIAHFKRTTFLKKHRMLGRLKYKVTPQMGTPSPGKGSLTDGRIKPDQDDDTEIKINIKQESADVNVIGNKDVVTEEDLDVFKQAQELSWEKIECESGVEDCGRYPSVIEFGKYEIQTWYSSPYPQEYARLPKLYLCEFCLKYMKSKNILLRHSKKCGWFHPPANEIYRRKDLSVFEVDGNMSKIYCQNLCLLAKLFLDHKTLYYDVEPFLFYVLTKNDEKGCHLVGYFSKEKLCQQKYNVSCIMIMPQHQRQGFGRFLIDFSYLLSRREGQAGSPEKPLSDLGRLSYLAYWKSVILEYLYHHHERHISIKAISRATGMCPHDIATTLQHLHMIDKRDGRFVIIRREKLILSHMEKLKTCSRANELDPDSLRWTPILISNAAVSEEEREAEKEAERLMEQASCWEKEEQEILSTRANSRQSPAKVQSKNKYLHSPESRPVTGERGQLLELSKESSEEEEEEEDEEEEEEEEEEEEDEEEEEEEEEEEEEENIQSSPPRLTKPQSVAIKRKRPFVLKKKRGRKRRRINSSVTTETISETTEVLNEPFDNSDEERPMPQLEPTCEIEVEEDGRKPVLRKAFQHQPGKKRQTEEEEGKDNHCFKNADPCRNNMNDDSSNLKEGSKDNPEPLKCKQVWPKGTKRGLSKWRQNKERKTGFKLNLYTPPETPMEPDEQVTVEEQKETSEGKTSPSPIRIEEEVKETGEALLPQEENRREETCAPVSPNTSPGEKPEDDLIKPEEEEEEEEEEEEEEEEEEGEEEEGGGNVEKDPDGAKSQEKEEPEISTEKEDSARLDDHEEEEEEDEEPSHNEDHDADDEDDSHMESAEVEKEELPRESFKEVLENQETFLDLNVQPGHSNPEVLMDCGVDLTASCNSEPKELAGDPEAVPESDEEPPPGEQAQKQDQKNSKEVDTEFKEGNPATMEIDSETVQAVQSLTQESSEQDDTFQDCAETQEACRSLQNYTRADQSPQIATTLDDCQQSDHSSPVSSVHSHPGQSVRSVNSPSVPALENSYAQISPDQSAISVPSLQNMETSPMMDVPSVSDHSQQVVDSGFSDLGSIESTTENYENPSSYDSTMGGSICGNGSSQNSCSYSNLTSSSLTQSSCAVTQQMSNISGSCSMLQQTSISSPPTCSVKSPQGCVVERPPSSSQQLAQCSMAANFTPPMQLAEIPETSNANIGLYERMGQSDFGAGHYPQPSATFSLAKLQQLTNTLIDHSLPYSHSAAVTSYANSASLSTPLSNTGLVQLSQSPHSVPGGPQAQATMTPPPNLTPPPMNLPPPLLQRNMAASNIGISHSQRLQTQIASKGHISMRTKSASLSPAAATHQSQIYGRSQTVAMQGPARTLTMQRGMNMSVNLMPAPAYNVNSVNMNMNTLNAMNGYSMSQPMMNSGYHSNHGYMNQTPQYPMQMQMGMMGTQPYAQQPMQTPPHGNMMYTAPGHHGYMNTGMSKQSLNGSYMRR
# Description: as §1, §2, §3, §4, §5, §6, §7
# [4] = target: KAT7 (Homo sapiens (Human), UniProt O95251); assay: KAT assay (SAMDI mass spectrometry), KAT7; type: biochemical;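 further: Baculovirus-expressed enzyme acetylating a histone peptide at room temperature, percent conversion from product and substrate peak areas, Ki from a Morrison tight-binding competitive fit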
# Chain of KAT7 (O95251 whole entry): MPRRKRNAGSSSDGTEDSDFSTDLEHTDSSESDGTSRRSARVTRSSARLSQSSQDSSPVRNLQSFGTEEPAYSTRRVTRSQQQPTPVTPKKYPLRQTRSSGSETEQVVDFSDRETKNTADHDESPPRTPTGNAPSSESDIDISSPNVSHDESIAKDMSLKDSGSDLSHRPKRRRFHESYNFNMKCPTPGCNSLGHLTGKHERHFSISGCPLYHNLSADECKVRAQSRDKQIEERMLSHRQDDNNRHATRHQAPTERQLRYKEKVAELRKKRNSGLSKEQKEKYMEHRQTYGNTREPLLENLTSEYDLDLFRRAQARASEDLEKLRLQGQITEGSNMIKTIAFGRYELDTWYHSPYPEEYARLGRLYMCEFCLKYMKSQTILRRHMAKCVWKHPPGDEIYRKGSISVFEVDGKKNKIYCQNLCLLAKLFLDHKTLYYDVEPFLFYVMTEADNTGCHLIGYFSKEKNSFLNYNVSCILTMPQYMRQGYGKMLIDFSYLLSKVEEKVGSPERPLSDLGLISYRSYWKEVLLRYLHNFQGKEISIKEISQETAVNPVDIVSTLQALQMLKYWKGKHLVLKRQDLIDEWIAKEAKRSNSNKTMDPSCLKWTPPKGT
# Description: as §1, §2, §3, §4, §5, §6, §7
# [5] = target: KAT5 (Homo sapiens (Human), UniProt Q92993); assay: KAT assay (SAMDI mass spectrometry), KAT5; type: biochemical;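 further: Baculovirus-expressed KAT5 acetylating a histone H4 peptide at room temperature, read as percent conversion to product, Ki from a Morrison tight-binding competitive fit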
# Description: as §1, §2, §3, §4, §5, §6, §7
# [6] = tested on: histone H3 Lysine 14 acetylation in U2OS cells; assay: Histone H3 Lysine 14 Acetylation Biomarker Assay; type: cell-based; conditions: Homo sapiens, serum free medium, 24 hours incubation
# Description: Compounds were tested for their ability to inhibit acetylation of the histone H3 Lysine 14 marker in the following assay:
# The cell line U2OS was seeded at a density of 3,000 cells per well in 384-well optical quality tissue culture plates in RPMI medium supplemented with 10% foetal bovine serum and 10 mM Hepes. The cells were allowed to adhere for 24 hours under standard culture conditions (37 degree Celsius, 5% CO2). At the end of this period the cells were washed with serum free medium. […] After incubation for 24 hours, the cells were fixed with 4% formaldehyde in PBS for 15 minutes at room temperature, washed with phosphate buffer saline and blocked with blocking buffer containing 0.2% TritonX100 and 2% BSA. Anti-H3K14ac specific antibody (Cell Signalling Technologies) in blocking buffer was added and incubated overnight at 4 degree Celsius. After washing, a secondary antibody labelled with AlexaFluor 488 dye (ThermoFisher) and Hoechst 33342 (1 μg/mL, Life Technologies) were added for 2 hours incubation at room temperature. Plates were washed and read on a PerkinElmer Opera HCS high content imaging platform. Using a Columbus image analysis pipeline, individual nuclei were located by Hoechst 33342 stain and the acetylation level was calculated from the AlexaFluor 488-related intensity in the same area.
# [7] = tested on: histone H2A.Z Lysine 7 acetylation in U2OS cells; assay: H2A.Z Lysine 7 Acetylation Biomarker Assay; type: cell-based; conditions: Homo sapiens, serum free medium, 24 hours incubation
# Description: Compounds were tested for their ability to inhibit the histone H2A.Z Lysine 7 acetylation marker in the following assay: The cell line U2OS was seeded at a density of 3,000 cells per well in 384-well optical quality tissue culture plates in RPMI medium supplemented with 10% foetal bovine serum and 10 mM Hepes. The cells were allowed to adhere for 24 hours under standard culture conditions (37 degree Celsius, 5% CO2). At the end of this period the cells were washed with serum free medium. […] 2018, at 30 μM concentration. After incubation for 24 hours, the cells were fixed with 4% formaldehyde in PBS for 15 minutes at room temperature, washed with phosphate buffer saline and blocked with blocking buffer containing 0.2% TritonX100 and 2% BSA. Anti-H2A.ZK7ac specific antibody (Abcam) in blocking buffer was added and incubated overnight at 4 degree Celsius. After washing, a secondary antibody labelled with AlexaFluor 488 dye (ThermoFisher) and Hoechst 33342 (1 μg/mL, Life Technologies) were added for 2 hours incubation at room temperature. Plates were washed and read on a PerkinElmer Opera HCS high content imaging platform. Using a Columbus image analysis pipeline, individual nuclei were located by Hoechst 33342 stain and the acetylation level was calculated from the AlexaFluor 488-related intensity in the same area.
# [8] = target: HBO1-KAT7 (Homo sapiens (Human), UniProt O95251); assay: biochemical
# [9] = target: MOZ-KAT6A (Homo sapiens (Human), UniProt Q92794); assay: biochemical
# [10] = target: TIP60-KAT5 (Homo sapiens (Human), UniProt Q92993); assay: biochemical
# [11] = read-out: KAT8 Ki at 1 μM AcCoA
# [12] = read-out: KAT6a Ki at 1 μM AcCoA, 1 μM AcCoA
# [13] = read-out: KAT6a Ki at 10 μM AcCoA, 10 μM AcCoA
# [14] = 25 μM AcCoA, read-out: KAT6b Ki at 25 μM AcCoA
# [15] = read-out: KAT7 Ki at 1 μM AcCoA
# [16] = read-out: KAT5 Ki at 1 μM AcCoA
# Chain of KAT8 (Q9H7Z6 whole entry): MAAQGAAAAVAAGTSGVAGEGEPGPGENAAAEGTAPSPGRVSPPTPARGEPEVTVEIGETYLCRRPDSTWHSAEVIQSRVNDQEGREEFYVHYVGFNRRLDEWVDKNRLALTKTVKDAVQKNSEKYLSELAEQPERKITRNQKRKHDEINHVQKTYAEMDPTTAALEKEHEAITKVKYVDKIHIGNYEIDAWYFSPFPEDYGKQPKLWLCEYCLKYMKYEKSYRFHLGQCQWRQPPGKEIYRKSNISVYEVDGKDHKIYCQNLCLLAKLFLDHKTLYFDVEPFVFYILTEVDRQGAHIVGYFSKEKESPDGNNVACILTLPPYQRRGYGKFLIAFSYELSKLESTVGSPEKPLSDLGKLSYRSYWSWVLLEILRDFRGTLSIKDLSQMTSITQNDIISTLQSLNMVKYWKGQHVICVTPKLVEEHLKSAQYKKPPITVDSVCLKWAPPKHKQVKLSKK
SMILES,"Ki [1, 11] [nM]","Ki [2, 12] [nM]","Ki [2, 13] [nM]","Ki [3, 14] [nM]","Ki [4, 15] [nM]","Ki [5, 16] [nM]",other results
COc1cccc(OC)c1S(=O)(=O)Nc1noc2cc(Cn3cccn3)c(C)cc12 [Example 27],530,1.17,0.68,2.39,50,220,
COc1cccc(OC)c1S(=O)(=O)Nc1noc2cc(Cn3cccn3)ccc12 [Example 28],3260,4.4,,5.06,450,3050,
COc1cc2c(cc1S(=O)(=O)Nc1noc3cc(Cn4cccn4)cc(OC)c13)CCC2 [Example 29],1010,0.53,,1.4,60,180,
"COc1ccccc1S(=O)(=O)Nc1noc2cc(Cn3cccn3)cc(OC)c12 [Example 45, 2-methoxy-N-{4-methoxy-6-[(1H-pyrazol-1-yl)methyl]-1,2-benzoxazol-3-yl}benzene-1-sulfonamide]",,,,1.55,,,"Ki ([1]; 1 μM AcCoA): 900 nM; Ki ([2]; KAT6a Ki at 1 μM AcCoA, 1 μM AcCoA): 2.28 nM; Ki ([3]; KAT6b Ki at 1 μM AcCoA, 1 μM AcCoA): 2.11 nM; Ki ([4]; KAT7 Ki at 1 μM AcCoA): 90 nM; Ki ([5]; 1 μM AcCoA): 320 nM"
COc1cc(C)ccc1S(=O)(=O)Nc1noc2cc(Cn3cccn3)cc(OC)c12 [Example 47],560,1.14,0.49,1.32,40,180,
CCOc1cc(C)ccc1S(=O)(=O)Nc1noc2cc(Cn3cccn3)cc(OC)c12 [Example 50],350,0.46,0.4,0.98,20,260,
CCOc1ccccc1S(=O)(=O)Nc1noc2cc(Cn3cccn3)cc(OC)c12 [Example 51],1110,2.71,1.67,4.13,90,770,
COc1cc(Cn2cccn2)cc2onc(NS(=O)(=O)c3cccc4c(C)ccnc34)c12 [Example 61],540,0.95,0.92,1.56,40,200,
COc1cc(Cn2cccn2)cc2onc(NS(=O)(=O)c3ccc(C)cc3F)c12 [Example 65],12500,6.04,4.44,12.1,220,3060,
COc1cc(Cn2cccn2)cc2onc(NS(=O)(=O)c3cccc(C)c3F)c12 [Example 70],3260,2.28,3.27,1.9,140,410,
COc1cc(Cl)ccc1S(=O)(=O)Nc1noc2cc(Cn3cccn3)cc(OC)c12 [Example 71],1440,1.18,1.17,2.81,30,320,
COc1cc(Cn2cccn2)cc2onc(NS(=O)(=O)c3ccc(C)c(C)c3)c12 [Example 72],12500,2.86,2.36,6.97,140,2960,
COc1cc(Cn2cccn2)cc2onc(NS(=O)(=O)c3c(C)ccc4cccnc34)c12 [Example 73],3260,2.31,1.7,1.36,250,710,
COc1cc(Cn2cccn2)cc2onc(NS(=O)(=O)c3cc(C)cc(F)c3)c12 [Example 75],12500,9.13,6.42,13.8,320,5700,
COc1cc(Cn2cccn2)cc2onc(NS(=O)(=O)c3cccc(C)c3C#N)c12 [Example 76],12500,7.89,3.62,60.1,330,4380,
COc1cc(Cn2cccn2)cc2onc(NS(=O)(=O)c3ccc(C(F)F)cc3)c12 [Example 77],12500,8.56,11.9,29.6,460,8450,
COc1cc(Cn2cccn2)cc2onc(NS(=O)(=O)c3cc(C)c(F)c(C)c3)c12 [Example 78],12500,5.64,5.73,26,540,9920,
COc1cc(Cn2cccn2)cc2onc(NS(=O)(=O)c3ccc(C)c(F)c3)c12 [Example 79],3260,5.11,4.98,4.27,220,1440,
COc1ccc(S(=O)(=O)Nc2noc3cc(Cn4cccn4)cc(OC)c23)cc1C [Example 84],12500,7.86,5.61,12.3,190,4630,
"COc1cccc(OC)c1S(=O)(=O)Nc1noc2cc(Cn3cc(CO)cn3)cc(OC)c12 [Example 87, N-(6-{[4-(hydroxymethyl)-1H-pyrazol-1-yl]methyl}-4-methoxy-1,2-benzoxazol-3-yl)-2,6-dimethoxybenzene-1-sulfonamide]",17900,38.6,,,1840,10800,"Ki ([3]; read-out: KAT6b Ki at 1 μM AcCoA, 1 μM AcCoA): 133 nM"
"COc1cccc(OC)c1S(=O)(=O)Nc1noc2cc(Cn3cccn3)c(Br)cc12 [Example 92, N-{5-bromo-6-[(1H-pyrazol-1-yl)methyl]-1,2-benzoxazol-3-yl}-2,6-dimethoxybenzene-1-sulfonamide]",240,1.07,0.45,2.73,30,110,
COc1cccc(OC)c1S(=O)(=O)Nc1noc2cc(Cn3cccn3)cc(F)c12 [Example 94],3260,5.15,,2.5,630,3640,
"CCc1cc(Cn2cccn2)cc2onc(NS(=O)(=O)c3c(OC)cccc3OC)c12 [Example 95, N-{4-ethyl-6-[(1H-pyrazol-1-yl)methyl]-1,2-benzoxazol-3-yl}-2,6-dimethoxybenzene-1-sulfonamide]",3260,9.88,,8.35,4340,12500,
COc1cccc(OC)c1S(=O)(=O)Nc1noc2cc(Cn3cccn3)cc(C3CC3)c12 [Example 96],12500,1.58,,3.67,900,11700,
"COc1ccc(C2CC2)cc1S(=O)(=O)Nc1noc2cc(Cn3cccn3)cc(OC)c12 [Example 97, 5-cyclopropyl-2-methoxy-N-{4-methoxy-6-[(1H-pyrazol-1-yl)methyl]-1,2-benzoxazol-3-yl}benzene-1-sulfonamide]",1510,1.1,,2.74,120,1030,
"COc1cc(Cn2cccn2)cc2onc(NS(=O)(=O)c3cccc4cc(C)cnc34)c12 [Example 99, N-(6-((1H-pyrazol-1-yl)methyl)-4-methoxybenzo[d]isoxazol-3-yl)-3-methylquinoline-8-sulfonamide]",,,,,,,IC50 [6]: 1550 nM; IC50 [7]: 11400 nM; IC50 [8]: 120 nM; IC50 [9]: 13 nM; IC50 [10]: 980 nM
"COc1cccc(OC)c1S(=O)(=O)Nc1noc2cc(-c3cnn(C)c3)cc(OC)c12 [Example 101, 2,6-dimethoxy-N-(4-methoxy-6-(1-methyl-1H-pyrazol-4-yl)benzo[d]isoxazol-3-yl)benzenesulfonamide]",,,,,,,IC50 [8]: 1550 nM; IC50 [9]: 1260 nM; IC50 [10]: 11200 nM
